This is an account of results in patent publication US8466176B2 (priority 2008, dated 2013).

A short description of one series: logP(HCOOH) reported with HPLC/MS. To be noted: HCOOH (formic acid), logP(HCOOH), HPLC/MS.
As a reminder, the chromatographic logP is a lipophilicity value derived from retention on a column. Lower therefore signals lower lipophilicity. As to `CN(C)c1cccc(C(=NO)c2nnnn2C)c1` [3-[(hydroxyimino)(1-methyl-1H-tetrazol-5-yl)methyl]-N,N-dimethylaniline], the chromatographic logP was 1.17.
On the same count and under the same terms, the same measure for `Cn1nnnc1C(=NOCc1cccc(N(CCC2CCCCC2)C(=O)OC(C)(C)C)n1)c1ccccc1` [Example 141, tert-butyl (2-cyclohexylethyl){6-[({[(1-methyl-1H-tetrazol-5-yl)(phenyl)methylene]amino}oxy)methyl]pyridin-2-yl}carbamate]: 6.56; for `CCCCCON(C(=O)OC(C)(C)C)c1cccc(CON=C(c2ccccc2)c2nnnn2C)n1` [Example 268, tert-butyl {6-[({[(1-methyl-1H-tetrazol-5-yl)(phenyl)methylene]amino}oxy)methyl]pyridin-2-yl}(pentyloxy)carbamate]: 5.25.
Same read-out and setting: the same measure for `CCCCCC(=O)NCc1cccc(CON=C(c2ccccc2)c2nnnn2C)n1` [Example 53, N-({6-[({[(1-methyl-1H-tetrazol-5-yl)(phenyl)methylene]amino}oxy)methyl]pyridin-2-yl}methyl)hexanamide]: 2.88; for `CCCCCCN(C=O)c1cccc(C)[n+]1[O-]` [N-hexyl-N-(6-methyl-1-oxidopyridin-2-yl)formamide]: 1.82; for `CON(C)C(=O)c1cccc(N(C)C)c1` [3-(dimethylamino)-N-methoxy-N-methylbenzamide]: 0.95.
In turn, `CN(C)c1cccc(C(=O)c2nnnn2C)c1` [[3-(dimethylamino)phenyl](1-methyl-1H-tetrazol-5-yl)methanone] came in with a chromatographic logP of 2.21.

The series is the same for the next values; noted with them: formic acid (HCOOH), logP(HCOOH), HPLC/MS.
`Cn1nnnc1C(=NOCc1csc(NCCC2CCCCC2)n1)c1ccccc1` [Example 161, N-(2-cyclohexylethyl)-4-[({[(1-methyl-1H-tetrazol-5-yl)(phenyl)methylene]amino}oxy)methyl]-1,3-thiazol-2-amine] yielded a chromatographic logP of 3.62.

The series is the same for the next values; noted with them: logP(HCOOH), HPLC/MS.
`Cn1nnnc1C(=NOCc1cccc(C=O)n1)c1ccccc1` [Example 174, 6-[({[(1-methyl-1H-tetrazol-5-yl)(phenyl)methylene]amino}oxy)methyl]pyridine-2-carbaldehyde] yielded a chromatographic logP of 2.54.
Still for that read-out and setting: the same measure for `CC(C)(C)OC(=O)N(CCC1CCCCC1)c1cccc(CO)n1` [tert-butyl (2-cyclohexylethyl)[6-(hydroxymethyl)pyridin-2-yl]carbamate]: 4.49; for `CC(C)(C)OC(=O)Nc1cccc(Br)n1` [tert-butyl (6-bromopyridin-2-yl)carbamate]: 4.11.

The same series, now with this note: method [a]: HPLC on reversed phase columns, pH 2.3 with 0.1% phosphoric acid and acetonitrile as eluent.
In the case of `CCCC#Cc1nc(CON=C(c2ccccc2)c2nnnn2C)cs1` [Example 261], the log p was 3.89^[a].
On the same count and under the same terms, then `C#Cc1nc(CON=C(c2ccccc2)c2nnnn2C)cs1` [Example 139], with 2.77^[a].
Same read-out and setting: the same measure for `Cn1nnnc1C(=NOCc1cccc(N(CCC2CC(F)(F)C2(F)F)C(=O)OC(C)(C)C)n1)c1ccccc1` (stereo not drawn) [Example 140]: 5.05^[a].
On the same count and under the same terms, the same measure for `Cn1nnnc1C(=NOCc1cccc(NCCC2CC(F)(F)C2(F)F)n1)c1ccccc1` (stereo not drawn) [Example 143]: 2.51^[a].

The same series, now with this note: method [b]: LC-MS at pH 2.7, 0.1% formic acid in water and acetonitrile, linear gradient 10% to 95% acetonitrile.
Regarding `COC[C@H](C)NC(=O)c1cccc(CON=C(c2ccccc2)c2nnnn2C)n1` [Example 83], the log p is 2.7^[b].
Still for that read-out and setting: then `Cn1nnnc1C(=NOCc1cccc(C(=O)NC(C)(C)C)n1)c1ccccc1` [Example 86], with 3.37^[b]; and `CCCCC(=O)NCc1cccc(CON=C(c2ccccc2)c2nnnn2C)n1` [Example 57], with 2.56^[b].
Same read-out and setting: then `CCCCOC(=O)NCc1cccc(CON=C(c2ccccc2)c2nnnn2C)n1` [Example 63], with 3.19^[b]; and `Cn1nnnc1C(=NOCc1cccc(F)n1)c1ccccc1` [Example 79], with 2.77^[b]; and `CCCCCNC(=S)Nc1cccc(CON=C(c2ccccc2)n2nnnc2C)n1` [Example 13], with 3.82^[b].
As for `CC(C)CCC#Cc1nc(CON=C(c2ccccc2)c2nnnn2C)c(Cl)s1` [Example 118], the log p is 5.59^[b].
In the case of `Cn1nnnc1C(=NOCc1nc(C#CC2CCCCC2)sc1Cl)c1ccccc1` [Example 120], the log p is 5.75^[b].
The same measure, in the same setting: the same measure for `Cc1nnnn1C(=NOCc1cccc(NC(=S)NCCc2ccccc2)n1)c1ccccc1` [Example 7]: 3.67^[b].

The same series, now with this note: method [b]: LC-MS at pH 2.7 with 0.1% formic acid in water and acetonitrile (0.1% formic acid), linear gradient 10% to 95% acetonitrile.
On to `CSc1cccc(C(=NOCc2csc(NCCCc3ccccc3)n2)c2nnnn2C)c1` [Example 305], for which the log p is 3.71^[b].
On the same count and under the same terms, then `Cn1nnnc1C(=NOCc1cccc(NOCC2CCCCC2)n1)c1ccccc1` [Example 284], with 4.44^[b]; and `Cn1nnnc1C(=NOCc1cccc(NOCc2ccccc2)n1)c1ccccc1` [Example 285], with 3.14^[b]; and `Cn1nnnc1C(=NOCc1cccc(N(OCC2CCCCC2)C(=O)OC(C)(C)C)n1)c1ccccc1` [Example 283], with 6.25[b].
Turning to `CCCCCCNc1cccc(CON=C(c2cccc(SC)c2)c2nnnn2C)n1` [Example 296], the log p was 2.78^[b].

Staying with this series, now noted: method [b]: LC-MS, pH 2.7 with 0.1% formic acid in water and acetonitrile (0.1% formic acid), linear gradient 10% to 95% acetonitrile.
In the case of `CCCOc1ccc(C#Cc2cccc(CON=C(c3ccccc3)c3nnnn3C)n2)cc1` [Example 246], the log p was 4.86^[b].
On the same count and under the same terms, the same measure for `Cn1nnnc1C(=NOCc1csc(C#CCCc2ccccc2)n1)c1cccc(F)c1` [Example 156]: 4.49^[b]; for `Cn1nnnc1C(=NOCc1cccc(C#Cc2ccc(C(F)(F)F)cc2)n1)c1ccccc1` [Example 217]: 4.65^[b]; for `Cn1nnnc1C(=NOCc1csc(C#Cc2cccc(F)c2)n1)c1ccccc1` [Example 264]: 4.19^[b].
`CN(C)c1ccc(C#Cc2cccc(CON=C(c3ccccc3)c3nnnn3C)n2)cc1` [Example 251]: the log p was 4.29^[b].
The same measure, in the same setting: the same measure for `Cn1nnnc1C(=NOCc1cccc(C#CCN2CCOCC2)n1)c1ccccc1` [Example 242]: 1.44^[b]; for `Cn1nnnc1C(=NOCc1csc(C#Cc2ccc(OC(F)(F)F)cc2)n1)c1ccccc1` [Example 266]: 4.89^[b]; for `Cn1nnnc1C(=NOCc1cccc(C#Cc2cc(F)cc(F)c2)n1)c1ccccc1` [Example 233]: 4.31^[b].
The same measure, in the same setting: the same measure for `Cn1nnnc1C(=NOCc1cccc(C#Cc2ccccc2F)n1)c1ccccc1` [Example 247]: 4.06^[b].
Still for that read-out and setting: the same measure for `Cn1nnnc1C(=NOCc1csc(C#CCCO)n1)c1ccccc1` [Example 198]: 2.3^[b].
Consider `CCCCCC#Cc1nc(CON=C(c2ccccc2)n2nnnc2C)cs1` [Example 167], for which the log p was 4.92^[b].
On the same count and under the same terms, then `CC(C)c1ccc(C#Cc2cccc(CON=C(c3ccccc3)c3nnnn3C)n2)cc1` [Example 229], with 5.14^[b].
Still for that read-out and setting: then `Cn1nnnc1C(=NOCc1cccc(C#Cc2cccc(OC(F)(F)F)c2)n1)c1ccccc1` [Example 249], with 4.75^[b]; and `Cn1nnnc1C(=NOCc1cccc(C#CCCC#N)n1)c1ccccc1` [Example 209], with 2.7^[b].
As to `COc1ccccc1C#Cc1cccc(CON=C(c2ccccc2)c2nnnn2C)n1` [Example 222], the log p is 3.89^[b].
In the case of `Cc1sc(C#CCC2CCCC2)nc1CON=C(c1ccccc1)c1nnnn1C` [Example 185], the log p is 5.2^[b].
The same measure, in the same setting: the same measure for `CCSCC#Cc1cccc(CON=C(c2ccccc2)c2nnnn2C)n1` [Example 243]: 3.69^[b]; for `Cn1nnnc1C(=NOCc1cccc(C#Cc2ccc(-c3ccccc3)cc2)n1)c1ccccc1` [Example 216]: 5.11^[b].
In the case of `CCCCC#Cc1nc(CON=C(c2ccccc2)c2nnnn2C)c(C)s1` [Example 183], the log p was 3.37^[b].
The same measure, in the same setting: the same measure for `CCCOC(C)(C)C#Cc1cccc(CON=C(c2ccccc2)c2nnnn2C)n1` [Example 241]: 4.31^[b]; for `Cn1nnnc1C(=NOCc1cccc(C#CCC2CCCC2)n1)c1ccccc1` [Example 236]: 4.78^[b].
For `CCCOc1ccc(C#Cc2nc(CON=C(c3ccccc3)c3nnnn3C)cs2)cc1` [Example 256], the log p was 5.03^[b].
Still for that read-out and setting: the same measure for `Cn1nnnc1C(=NOCc1cccc(C#Cc2ccc(N3CCCCC3)cc2)n1)c1ccccc1` [Example 232]: 4.81^[b]; for `Cn1nnnc1C(=NOCc1cccc(NCCOC2CCCC2)n1)c1ccccc1` [Example 204]: 2.14^[b]; for `Cn1nnnc1C(=NOCc1cccc(C#Cc2cccc(C(F)(F)F)c2)n1)c1ccccc1` [Example 218]: 4.62^[b].
Turning to `Cn1nnnc1C(=NOCc1cccc(C#Cc2cccc(F)c2)n1)c1ccccc1` [Example 248], the log p was 4.16^[b].
Consider `CCCC(C)C#Cc1nc(CON=C(c2ccccc2)c2nnnn2C)c(C)s1` (stereo not drawn) [Example 188], for which the log p is 5.06^[b].
Same read-out and setting: then `Cc1ccc(C#Cc2cccc(CON=C(c3ccccc3)c3nnnn3C)n2)cc1` [Example 231], with 4.44^[b].

The same series, now with this note: reversed phase HPLC column, pH 2.7, log p, method [b]: LC-MS at pH 2.7, 0.1% formic acid in water and acetonitrile, linear gradient 10% to 95% acetonitrile.
`CCCCCC(=O)NCc1cccc(CON=C(c2ccccc2)c2nnnn2C)n1` [Example 53, N-({6-[({[(1-methyl-1H-tetrazol-5-yl)(phenyl)methylene]amino}oxy)methyl]pyridin-2-yl}methyl)hexanamide] yielded a chromatographic logP of 2.88.

The series is the same for the next values; noted with them: reversed phase HPLC column, pH 2.7, log p, method [b]: LC-MS at pH 2.7 with 0.1% formic acid in water and acetonitrile (0.1% formic acid), linear gradient 10% to 95% acetonitrile.
In turn, `CCCCCON(C(=O)OC(C)(C)C)c1cccc(CON=C(c2ccccc2)c2nnnn2C)n1` [Example 268, tert-butyl {6-[({[(1-methyl-1H-tetrazol-5-yl)(phenyl)methylene]amino}oxy)methyl]pyridin-2-yl}(pentyloxy)carbamate] yielded a chromatographic logP of 5.25.
Still for that read-out and setting: the same measure for `CSc1cccc(C(=NOCc2csc(C#CC3CCCC3)n2)c2nnnn2C)c1` [Example 302]: 4.86.

Staying with this series, now noted: reversed phase HPLC column, pH 2.7, log p, method [b]: LC-MS, pH 2.7 with 0.1% formic acid in water and acetonitrile (0.1% formic acid), linear gradient 10% to 95% acetonitrile.
In the case of `Cn1nnnc1C(=NOCc1csc(NCCC2CCCCC2)n1)c1ccccc1` [Example 161, N-(2-cyclohexylethyl)-4-[({[(1-methyl-1H-tetrazol-5-yl)(phenyl)methylene]amino}oxy)methyl]-1,3-thiazol-2-amine], the chromatographic logP was 3.62.

The same series, now with this note: reversed phase HPLC columns, pH 2.3, log p, method [a]: HPLC on reversed phase columns, pH 2.3 with 0.1% phosphoric acid and acetonitrile as eluent.
Regarding `Cn1nnnc1C(=NOCc1cccc(C=O)n1)c1ccccc1` [Example 174, 6-[({[(1-methyl-1H-tetrazol-5-yl)(phenyl)methylene]amino}oxy)methyl]pyridine-2-carbaldehyde], the chromatographic logP amounted to 2.54.
On the same count and under the same terms, then `Cn1nnnc1C(=NOCc1cccc(N(CCC2CCCCC2)C(=O)OC(C)(C)C)n1)c1ccccc1` [Example 141, tert-butyl (2-cyclohexylethyl){6-[({[(1-methyl-1H-tetrazol-5-yl)(phenyl)methylene]amino}oxy)methyl]pyridin-2-yl}carbamate], with 6.56.
